For experiment [1], the system named is male Syrian hamsters (ear sebaceous glands, sebum). The experiment can be described thus: Animal model for inhibition of sebum production (hamster ear). The experiment is classed as in vivo, Syrian hamster. To be noted: 3 % w/v, 4 weeks. The protocol: Arch. Derm. […] This model uses male Syrian hamsters, whose ears contain sebaceous glands.
Testing for sebum inhibition was carried out in the following manner. Male Syrian hamsters aged 9 to 10 weeks were introduced into the laboratory environment and acclimated for 2 weeks prior to use in the study. Each group consisted of 5 animals and run in parallel with vehicle and positive controls. Prior to administration, a sufficient quantity each compound was dissolved in 1 mL of the vehicle identified in Table III to achieve the final concentration reported in Table Ill.
Animals were dosed topically twice daily, five days a week, for 4 weeks. Each dose consisted of 25 micro liters of vehicle control or drug. The dose was applied to the ventral surfaces of both the right and left ears. All animals were sacrificed approximately 18-24 hours after the final dose. The right ears were collected from each animal and used for sebum analysis.
The ears were prepped for HPLC analysis in the following manner. One 8 mm distal biopsy punch was taken, just above the anatomical “V” mark in the ear to normalize the sample area. The punch was pulled apart. The ventral biopsy surface (the area where the topical dose was directly applied to the sebaceous glands) was retained for testing and the dorsal surface of the biopsy punch was discarded.
Tissue samples were blown with N2 gas and stored at −80° C. under nitrogen until HPLC analysis. In addition to ear samples, an aliquot of each drug and vehicle (at least 250 ul) was also stored at −80° C. for inclusion in the HPLC analysis.
HPLC analysis was carried out on an extract of the tissue sample. Tissue samples were contacted with 3 ml of solvent (a 4:1 admixture of 2,2,4-trimethylpentane and isopropyl alcohol). The mixture was shaken for 15 minutes and stored overnight at room temperature, protected from light. The next morning 1 milliliter of water was added to the sample and shaken for 15 minutes. The sample was then centrifuged at approximately 1500 rpm for 15 minutes. Two ml of the organic phase (top layer) was transferred to a glass vial, dried at 37° C., under nitrogen, for approximately 1 hour, and then lyophilized for approximately 48 hours. The samples were then removed from the lyophilizer and each vial was reconstituted with 600 μl of solvent A (trimethylpentane/tetrahydrofuran (99:1). The samples were then recapped and vortexed for 5 minutes.
200 μl of each sample was then transferred to a pre-labeled 200 μl HPLC vial with 200 μL glass inserts. The HPLC vials were placed in the autosampler tray for the Agilent 1100 series HPLC unit. The Agilent 1100 HPLC system consisted of a thermostated autosampler, a quarternary pump, a column heater, and an A/D interface module. All components were controlled by Agilent ChemStation software. A Waters Spherisorb S3W 4.6×100 mm analytical column was maintained at 30° C. by the Agilent column heater unit. The HPLC autosampler was programmed to maintain the sample temperature at 20 C throughout the run.
10 uL of each sample was injected in triplicate into the column. Two solvents were used for the solvent gradient. Solvent A was an admixture of trimethylpentane and tetrahydrofuran (99:1). Solvent B was ethylacetate. The gradient utilized is described in the table below: […]
The Sedex 75 Evaporative Light Scattering Detector (ELSD) was operated at 45° C. with a gain of 5, and N2 pressure maintained at 3.1 bar. Analog signal obtained by the instrument was sent to the Agilent A/D interface module where it was converted to a digital output. The conversion was based on a 10000 mAU/volt set point and the data rate was set at 10 Hz (0.03 min). The resulting digital output was then feed into the Agilent ChemStation software for integration of the peak area.

For experiment [2], the target named is T1, hAR (human androgen receptor) (Homo sapiens, UniProt P10275).
T1 construct: made in house; host or cells: baculovirus/Sf9 insect cells (crude extract)
T1 sequence (P10275 1-920): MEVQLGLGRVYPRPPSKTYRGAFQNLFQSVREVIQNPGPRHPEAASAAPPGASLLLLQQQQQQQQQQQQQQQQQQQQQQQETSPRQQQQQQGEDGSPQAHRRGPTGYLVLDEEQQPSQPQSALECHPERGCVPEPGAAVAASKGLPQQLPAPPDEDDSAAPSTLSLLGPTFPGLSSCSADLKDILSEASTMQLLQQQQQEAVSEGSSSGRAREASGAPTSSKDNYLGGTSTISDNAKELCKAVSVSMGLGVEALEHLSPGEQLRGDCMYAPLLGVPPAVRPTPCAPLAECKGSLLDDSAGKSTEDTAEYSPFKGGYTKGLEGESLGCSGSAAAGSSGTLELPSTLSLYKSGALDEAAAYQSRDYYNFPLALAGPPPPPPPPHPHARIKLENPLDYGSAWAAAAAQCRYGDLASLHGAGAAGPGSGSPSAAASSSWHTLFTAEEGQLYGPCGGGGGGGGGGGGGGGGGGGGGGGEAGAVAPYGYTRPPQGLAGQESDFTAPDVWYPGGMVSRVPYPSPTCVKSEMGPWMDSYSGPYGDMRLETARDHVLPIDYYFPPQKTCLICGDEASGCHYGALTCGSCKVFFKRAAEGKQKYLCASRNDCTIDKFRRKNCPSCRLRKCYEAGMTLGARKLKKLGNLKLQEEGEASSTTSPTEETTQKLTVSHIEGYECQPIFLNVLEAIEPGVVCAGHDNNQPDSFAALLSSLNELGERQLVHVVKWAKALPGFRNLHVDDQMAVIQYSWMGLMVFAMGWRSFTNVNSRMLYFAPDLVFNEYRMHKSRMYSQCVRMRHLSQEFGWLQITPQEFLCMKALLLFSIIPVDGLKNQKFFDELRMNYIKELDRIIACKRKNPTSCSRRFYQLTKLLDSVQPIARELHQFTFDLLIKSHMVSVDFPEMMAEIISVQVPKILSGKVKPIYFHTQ
The experiment can be described thus: Competitive hAR binding assay with 3H-DHT tracer. To be noted: baculovirus/Sf9 hAR extract, 1 nM 3H-DHT, one hour at 4° C; mean of multiple tests; read-out: AR Binding IC50.

Where [3] appears, read: Vehicle #1 (polyethylene glycol/transcutol/ethanol 20/20/60), topical twice daily, vs vehicle control.

As for `CSc1ccccc1Oc1ccc(C#N)cc1Cl` [Example 5, 3-Chloro-4-(2-methylsulfanyl-phenoxy)-benzonitrile], in experiment [1] (setting [3]), the “% CE Reduction” value is 27% and the “% WE Reduction” value came out at 39%. The “% WE & CE Reduction” value in experiment [1] (Vehicle #1, topical twice daily, sum of WE and CE) is 66%. In experiment [2], the IC50 (as a rule, the concentration at which inhibition is half-maximal) was 0.311 µM.

Values taken from patent US20090105349A1, “ANDROGEN MODULATORS” (WARNER-LAMBERT COMPANY LLC, priority 2004, published 2009).
